Organism: Rattus norvegicus
Assay: Open TG-GATES - Regimen: Daily Repeat
Assay type: toxicity, organism-based, Sprague-Dawley
Design: regimen Daily Repeat, gender Male, age 6 weeks
Conditions: in vivo, po, 1000 mg/kg, route gavage, dose level Middle; for APTT / Bas / Eos / Fbg / Hb / Ht / Lym / MCH / MCHC / MCV / Mono / Neu / PT / Plat / RBC / Ret / WBC: tissue Blood; for KIDNEY_L / KIDNEY_R / KIDNEY_TOTAL: tissue Kidney; for LIVER: tissue Liver; for A/G / ALP / ALT / AST / BUN / CRE / Ca / Cl / DBIL / GLC / IP / K / LDH / Na / PL / RALB / TBIL / TC / TG / TP / gamma-GTP: tissue Plasma

SMILES: COc1ccc(O)c(C(C)(C)C)c1.COc1ccc(O)cc1C(C)(C)C [BUTYLATED HYDROXYANISOLE]
- TERMINAL_BW (72 h, time 3 day): 219.1 g
- APTT (72 h, time 3 day): 16.1 s
- Bas (72 h, time 3 day): 0.3%
- Eos (72 h, time 3 day): 0.7%
- Fbg (72 h, time 3 day): 310.6 mg/dL
- Hb (72 h, time 3 day): 12.6 g/dL
- Ht (72 h, time 3 day): 36.7%
- Lym (72 h, time 3 day): 75.6%
- MCH (72 h, time 3 day): 20.5 pg
- MCHC (72 h, time 3 day): 34.3%
- MCV (72 h, time 3 day): 59.6 fL
- Mono (72 h, time 3 day): 3.1%
- Neu (72 h, time 3 day): 19.4%
- PT (72 h, time 3 day): 10.9 s
- Plat (72 h, time 3 day): 134.7 x10_4/uL
- RBC (72 h, time 3 day): 615.6 x10_4/ul
- Ret (72 h, time 3 day): 3.6%
- WBC (72 h, time 3 day): 130.3 x10_2/uL
- KIDNEY_L (72 h, time 3 day): 1 g
- KIDNEY_R (72 h, time 3 day): 0.9 g
- KIDNEY_TOTAL (72 h, time 3 day): 1.9 g
- LIVER (72 h, time 3 day): 15 g
- A/G (72 h, time 3 day): 0.8
- ALP (72 h, time 3 day): 1334 IU/L
- ALT (72 h, time 3 day): 44.6 IU/L
- AST (72 h, time 3 day): 65.6 IU/L
- BUN (72 h, time 3 day): 16 mg/dL
- CRE (72 h, time 3 day): 0.2 mg/dL
- Ca (72 h, time 3 day): 11.5 mg/dL
- Cl (72 h, time 3 day): 104.6 meq/L
- DBIL (72 h, time 3 day): 0.028 mg/dL
- GLC (72 h, time 3 day): 171.4 mg/dL
- IP (72 h, time 3 day): 7 mg/dL
- K (72 h, time 3 day): 3.9 meq/L
- LDH (72 h, time 3 day): 71.8 IU/L
- Na (72 h, time 3 day): 142.4 meq/L
- PL (72 h, time 3 day): 200.8 mg/dL
- RALB (72 h, time 3 day): 2.6 g/dL
- TBIL (72 h, time 3 day): 0.092 mg/dL
- TC (72 h, time 3 day): 115.2 mg/dL
- TG (72 h, time 3 day): 76.2 mg/dL
- TP (72 h, time 3 day): 5.9 g/dL
- gamma-GTP (72 h, time 3 day): 1.6 IU/L
- TERMINAL_BW ([…], time 7 day): 247 g
- TERMINAL_BW ([…], time 14 day): 309.8 g
- TERMINAL_BW ([…], time 28 day): 393.4 g
- APTT ([…], time 7 day): 16.2 s
- Bas ([…], time 7 day): 0.3%
- Eos ([…], time 7 day): 0.6%
- Fbg ([…], time 7 day): 341 mg/dL
- Hb ([…], time 7 day): 13.3 g/dL
- Ht ([…], time 7 day): 38.5%
- Lym ([…], time 7 day): 79%
- MCH ([…], time 7 day): 20.6 pg
- MCHC ([…], time 7 day): 34.5%
- MCV ([…], time 7 day): 59.7 fL
- Mono ([…], time 7 day): 2%
- Neu ([…], time 7 day): 17.1%
- PT ([…], time 7 day): 11.6 s
- Plat ([…], time 7 day): 156.6 x10_4/uL
- RBC ([…], time 7 day): 645.8 x10_4/ul
- Ret ([…], time 7 day): 5.7%
- WBC ([…], time 7 day): 119.3 x10_2/uL
- APTT ([…], time 14 day): 19.6 s
- Bas ([…], time 14 day): 0.3%
- Eos ([…], time 14 day): 0.7%
- Fbg ([…], time 14 day): 334.2 mg/dL
- Hb ([…], time 14 day): 13.6 g/dL
- Ht ([…], time 14 day): 39.6%
- Lym ([…], time 14 day): 76.3%
- MCH ([…], time 14 day): 19.9 pg
- MCHC ([…], time 14 day): 34.3%
- MCV ([…], time 14 day): 57.9 fL
- Mono ([…], time 14 day): 2.4%
- Neu ([…], time 14 day): 19.6%
- PT ([…], time 14 day): 11.8 s
- Plat ([…], time 14 day): 132.4 x10_4/uL
- RBC ([…], time 14 day): 684.8 x10_4/ul
- Ret ([…], time 14 day): 3.9%
- WBC ([…], time 14 day): 105.1 x10_2/uL
- APTT ([…], time 28 day): 20.3 s
- Bas ([…], time 28 day): 0.4%
- Eos ([…], time 28 day): 1%
- Fbg ([…], time 28 day): 290.2 mg/dL
- Hb ([…], time 28 day): 14.7 g/dL
- Ht ([…], time 28 day): 41.5%
- Lym ([…], time 28 day): 77.6%
- MCH ([…], time 28 day): 19.5 pg
- MCHC ([…], time 28 day): 35.4%
- MCV ([…], time 28 day): 55 fL
- Mono ([…], time 28 day): 1.8%
- Neu ([…], time 28 day): 18.4%
- PT ([…], time 28 day): 12.1 s
- Plat ([…], time 28 day): 119.1 x10_4/uL
- RBC ([…], time 28 day): 754.6 x10_4/ul
- Ret ([…], time 28 day): 2.2%
- WBC ([…], time 28 day): 117.9 x10_2/uL
- KIDNEY_L ([…], time 7 day): 1 g
- KIDNEY_R ([…], time 7 day): 1 g
- KIDNEY_TOTAL ([…], time 7 day): 2 g
- KIDNEY_L ([…], time 14 day): 1.2 g
- KIDNEY_R ([…], time 14 day): 1.1 g
- KIDNEY_TOTAL ([…], time 14 day): 2.3 g
- KIDNEY_L ([…], time 28 day): 1.3 g
- KIDNEY_R ([…], time 28 day): 1.3 g
- KIDNEY_TOTAL ([…], time 28 day): 2.6 g
- LIVER ([…], time 7 day): 13.6 g
- LIVER ([…], time 14 day): 18 g
- LIVER ([…], time 28 day): 20 g
- A/G ([…], time 7 day): 0.8
- ALP ([…], time 7 day): 1105 IU/L
- ALT ([…], time 7 day): 35.6 IU/L
- AST ([…], time 7 day): 56.8 IU/L
- BUN ([…], time 7 day): 16.4 mg/dL
- CRE ([…], time 7 day): 0.2 mg/dL
- Ca ([…], time 7 day): 11.3 mg/dL
- Cl ([…], time 7 day): 105.4 meq/L
- DBIL ([…], time 7 day): 0.024 mg/dL
- GLC ([…], time 7 day): 171.8 mg/dL
- IP ([…], time 7 day): 6.8 mg/dL
- K ([…], time 7 day): 3.7 meq/L
- LDH ([…], time 7 day): 62.8 IU/L
- Na ([…], time 7 day): 143 meq/L
- PL ([…], time 7 day): 188.2 mg/dL
- RALB ([…], time 7 day): 2.8 g/dL
- TBIL ([…], time 7 day): 0.054 mg/dL
- TC ([…], time 7 day): 103.4 mg/dL
- TG ([…], time 7 day): 144.4 mg/dL
- TP ([…], time 7 day): 6.4 g/dL
- gamma-GTP ([…], time 7 day): 1.2 IU/L
- A/G ([…], time 14 day): 0.7
- ALP ([…], time 14 day): 1071.8 IU/L
- ALT ([…], time 14 day): 36.8 IU/L
- AST ([…], time 14 day): 56.8 IU/L
- BUN ([…], time 14 day): 19 mg/dL
- CRE ([…], time 14 day): 0.2 mg/dL
- Ca ([…], time 14 day): 11.1 mg/dL
- Cl ([…], time 14 day): 105 meq/L
- DBIL ([…], time 14 day): 0.022 mg/dL
- GLC ([…], time 14 day): 169 mg/dL
- IP ([…], time 14 day): 5.9 mg/dL
- K ([…], time 14 day): 3.8 meq/L
- LDH ([…], time 14 day): 50 IU/L
- Na ([…], time 14 day): 143.6 meq/L
- PL ([…], time 14 day): 199.8 mg/dL
- RALB ([…], time 14 day): 2.8 g/dL
- TBIL ([…], time 14 day): 0.046 mg/dL
- TC ([…], time 14 day): 103 mg/dL
- TG ([…], time 14 day): 164.8 mg/dL
- TP ([…], time 14 day): 6.6 g/dL
- gamma-GTP ([…], time 14 day): 1.8 IU/L
- A/G ([…], time 28 day): 0.7
- ALP ([…], time 28 day): 853 IU/L
- ALT ([…], time 28 day): 35.6 IU/L
- AST ([…], time 28 day): 55.6 IU/L
- BUN ([…], time 28 day): 17.4 mg/dL
- CRE ([…], time 28 day): 0.3 mg/dL
- Ca ([…], time 28 day): 11.2 mg/dL
- Cl ([…], time 28 day): 104.4 meq/L
- DBIL ([…], time 28 day): 0.018 mg/dL
- GLC ([…], time 28 day): 183.8 mg/dL
- IP ([…], time 28 day): 5.8 mg/dL
- K ([…], time 28 day): 3.4 meq/L
- LDH ([…], time 28 day): 58.2 IU/L
- Na ([…], time 28 day): 145.2 meq/L
- PL ([…], time 28 day): 161 mg/dL
- RALB ([…], time 28 day): 2.7 g/dL
- TBIL ([…], time 28 day): 0.058 mg/dL
- TC ([…], time 28 day): 88.4 mg/dL
- TG ([…], time 28 day): 115.4 mg/dL
- TP ([…], time 28 day): 6.5 g/dL
- gamma-GTP ([…], time 28 day): 1.4 IU/L

Source: ChEMBL document CHEMBL3885861, “Open TG-GATES”
